Assay [1] has as its target T1, 5-HT3 (Homo sapiens, UniProt P46098).
T1 sequence (P46098 24-478): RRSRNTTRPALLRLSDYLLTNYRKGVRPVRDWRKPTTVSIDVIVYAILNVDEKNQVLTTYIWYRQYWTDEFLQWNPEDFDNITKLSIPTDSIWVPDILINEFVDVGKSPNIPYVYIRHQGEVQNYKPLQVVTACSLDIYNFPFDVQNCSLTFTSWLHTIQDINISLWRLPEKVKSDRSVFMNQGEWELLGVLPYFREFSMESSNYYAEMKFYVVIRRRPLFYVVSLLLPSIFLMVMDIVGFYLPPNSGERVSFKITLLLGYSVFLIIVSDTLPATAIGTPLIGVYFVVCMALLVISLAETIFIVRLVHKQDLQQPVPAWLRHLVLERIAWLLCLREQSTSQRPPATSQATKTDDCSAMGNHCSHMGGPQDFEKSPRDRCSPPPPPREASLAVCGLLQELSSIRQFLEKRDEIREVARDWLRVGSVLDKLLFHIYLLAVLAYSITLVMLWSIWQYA
The assay is described as follows: Compound affinity for the human 5-HT3 receptor (Assay A), [3H]-GR65630 radioligand binding. As to conditions: annotated (A): Assay A. Details: host or cells: N1E-155 cell lines (so in the source). On the procedure: Compound Affinity for the human 5-HT3 Receptor (Assay A)
Compounds were tested by MDS Pharma Services—Taiwan Ltd., 158 Li-The Road, Peitou, Taipei, Taiwan 112 R.O.C. In order to evaluate the relative affinity of the various compounds for the human 5-HT3 receptor, N1E-155 cell lines were developed to express the target protein. For binding, these cells were homogenized, centrifuged and washed with buffer (20 mM HEPES, 150 mM NaCl, pH 7.4) then suspended in 0.5 mL of buffer and [3H]-GR65630 added at a concentration of 3.5×10^-10 M. An initial single concentration of 10^-7 M of the test compound was then added. Incubation was carried out at room temperature for 60 minutes at 25° C. then was terminated by rapid removal of the incubation medium. Radioactivity was assessed using liquid scintillation spectrophotometry after exposure to scintillation cocktail for at least three hours. […] Ki values were then calculated from the Cheng-Prusoff equation. In all of the above binding studies the non-specific determinant was MDL-72222 (1.0 μM).

For assay [2], the target named is T1, 5-HT3. As to the kind of experiment: Compound affinity for the human 5-HT3 receptor (Assay B), SPA radioligand binding with [9-methyl-3H]BRL-43694. Details: purchased Perkin Elmer. In short, it runs like this:
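Ten competitor concentrations in duplicate; specific binding (total minus nonspecific) fitted for IC50, converted to Ki by Cheng-Prusoff.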

Assay [3] deals with T2, 5-HT3 receptors (Mus musculus, UniProt P23979).
T2 construct: from tissue; host or cells: whole animal: male or female CD-1(Crl.) mice
T2 sequence (P23979 24-489): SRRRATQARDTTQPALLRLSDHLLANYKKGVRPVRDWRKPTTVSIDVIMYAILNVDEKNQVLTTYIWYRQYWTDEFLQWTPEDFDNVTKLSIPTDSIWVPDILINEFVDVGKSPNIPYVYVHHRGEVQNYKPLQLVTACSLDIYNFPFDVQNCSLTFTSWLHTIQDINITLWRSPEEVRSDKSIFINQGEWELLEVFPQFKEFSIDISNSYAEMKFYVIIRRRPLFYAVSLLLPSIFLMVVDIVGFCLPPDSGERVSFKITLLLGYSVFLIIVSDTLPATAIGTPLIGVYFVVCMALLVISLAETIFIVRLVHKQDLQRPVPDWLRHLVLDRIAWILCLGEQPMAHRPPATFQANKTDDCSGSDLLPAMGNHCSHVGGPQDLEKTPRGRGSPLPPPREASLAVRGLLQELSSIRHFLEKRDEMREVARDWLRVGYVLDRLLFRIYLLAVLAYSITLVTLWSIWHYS
As to the kind of experiment: Bezold-Jarisch assay in vivo: inhibition of serotonin induced bradycardia. As to conditions: read-out: % Inhibition @ dose of test substance (p.o.); for inhibition at 3 mg/kg: 3 mg/kg p.o.; for inhibition at 3 mg/kg / inhibition at 1 mg/kg: 5-HT (0.1 mg/kg IV)-induced bradycardia 60 min later; for inhibition at 1 mg/kg: 1 mg/kg p.o. On the procedure: Bezold-Jarisch Assay in vivo. […] Arch. Int. Pharmacodyn. 277: 235-252, 1985]. Test substances and vehicle [2% Tween 80] were each administered orally (0.3 to 3 mg/kg) to a group of 5 male or female CD-1(Crl.) mice each weighing 24±2 g. A dosing volume of 10 mL/kg was used. Sixty minutes later, 5-HT (0.1 mg/kg IV)-induced bradycardia was recorded in urethane (2225-2500 mg/kg IP, given 10 minutes before 5-HT)-anesthetized animals.
In vivo 5-HT3 Antagonism in the mouse (Bradycardia Reflex)

For assay [4], the target named is T1, 5-HT3. As to the kind of experiment: 5-HT3 inhibitor screen with potency threshold (not further specified). Format: binding.

The structures appear in SMILES notation. Structures can show the parent of a compound that is named as a salt.

A word on the Ki: it is a measure of affinity in units of concentration, obtained from inhibition or displacement. In the case of `CSc1nc2c(C(=O)N[C@H]3C[C@H]4CCC[C@@H](C3)N4C)cccc2o1` [Example 13, Endo-N-(9-Methyl-9-azabicyclo[3.3.1]non-3-yl)-2-methylthiobenzoxazole-4-carboxamide Hydrochloride], the Ki in assay [1] came to 4.6 nM.

By inhibition is commonly meant the percentage by which the read-out fell short of the control. Turning to `C[C@@H]1CNC[C@H](C)N1c1nc2c(C(=O)NC3CC4CCCC(C3)N4C)cccc2o1` (relative stereo) [Example 50, Endo-N-(9-Methyl-9-azabicyclo[3.3.1]nonan-3-yl)-2-((2S*,6R*)-2,6-dimethylpiperazin-1-yl)benzoxazole-4-carboxamide Hydrochloride], the affinity in assay [2] corresponds to a Ki of 13.6 nM. Further, the inhibition at 3 mg/kg in assay [3] turned out to be 80%.

As to `Nc1nc2c(C(=O)NC3CN4CCC3CC4)cc(Cl)cc2o1` (centres unmarked) [Example 103, Hydrochloride], the affinity in assay [2] corresponds to a Ki of 5.1 nM. In assay [3], the inhibition at 3 mg/kg was 97%.

Turning to `C[C@H]1CN(C)CCN1c1nc2c(C(=O)NC3CC4CCCC(C3)N4C)cccc2o1` (stereo partly drawn) [Example 55, Endo-N-(9-Methyl-9-azabicyclo[3.3.1]nonan-3-yl)-2-((S)-2,4-dimethylpiperazin-1-yl)benzoxazole-4-carboxamide Hydrochloride], the Ki in assay [2] is 28.8 nM. In addition, in assay [4], the “level of potency established as the threshold for the screen” value is reported as “has not exhibited the level of potency established as the threshold for the screen”.

Consider `Nc1nc2c(C(=O)NC3CN4CCC3CC4)cc(F)cc2o1` [Example 116, (S)—N-(Quinulidin-8-yl)-2-amino-6-fluorobenzoxazole-4-carboxamide Hydrochloride], for which, in assay [2], the Ki came out at 9.4 nM. Further, in assay [3], the inhibition at 3 mg/kg turned out to be 97%.

Consider `CSc1nc2c(C(=O)N[C@@H]3CN4CCC3CC4)cccc2o1` [Example 14, (S)—N-(quinuclidine-8-yl)-2-(methylthio)benzoxazole-4-carboxamide Hydrochloride], for which, in assay [1], the affinity, expressed as Ki, was 2.6 nM.

Turning to `C[C@H]1COCCN1c1nc2c(C(=O)NC3CC4CCCC(C3)N4C)cccc2o1` (stereo partly drawn) [Example 49, Endo-N-(9-Methyl-9-azabicyclo[3.3.1]nonan-3-yl)-2-((S)-3-methylmorpholino)benzoxazole-4-carboxamide Hydrochloride], the inhibition at 1 mg/kg in assay [3] came out at 86%.

As for `Nc1nc2c(C(=O)NC3CN4CCC3CC4)cccc2o1` [Example 93, (S)—N-(Quinulidin-8-yl)-2-aminobenzoxazole-4-carboxamide Hydrochloride], affinity in assay [2] was put at a Ki of 12.1 nM. Also, in assay [3], the inhibition at 3 mg/kg came out at 85%.

On to `CN(C)c1nc2c(C(=O)N[C@@H]3CN4CCC3CC4)cccc2o1` [Example 8, (S)—N-(quinuclidine-8-yl)-2-(dimethylamino)benzoxazole-4-carboxamide Hydrochloride], for which, in assay [2] (Assay B (method B unless otherwise annotated), read-out: 5-HT3 Ki), the Ki was determined as 18.1 nM. For the same molecule, the inhibition at 0.3 mg/kg in assay [3] turned out to be 83%.

In assay [2], `C[C@H]1COC[C@H](C)N1c1nc2c(C(=O)NC3CC4CCCC(C3)N4C)cccc2o1` (stereo partly drawn) [Example 75, Endo-N-(9-Methyl-9-azabicyclo[3.3.1]nonan-3-yl)-2-((3S,5S)-3,5-dimethylmorpholino)benzoxazole-4-carboxamide Hydrochloride] came in with a Ki of 0.59 nM. Besides, the inhibition at 1 mg/kg in assay [3] was determined as 98%.
